What follows are molecules tested against T1, HCV polymerase (Hepatitis C virus genotype 1b, UniProt P26663) (assay: HCV polymerase primer/template-directed transcription assay (32P-GTP incorporation, filter binding)). Details: recombinant HCV polymerase; 30 minutes at 30° C.; concentration giving 50% inhibition of polymerase-directed transcription; read-out: IC50.
T1 construct: 2.5 pmoles (0.15 μg) HCV polymerase protein in a final volume of 75 μL
Format: biochemical
Outline: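 IC50s come from triplicate cpm, refit with an enzyme-concentration (30 nM) correction when under 200 nM. Reactions ran 30 min at 30° C in Tris pH 7.2 with MgCl2, 1 μM GTP spiked with α-32P-GTP, biotin-dG12 primer and poly(rC)300 template, with 1% DMSO. Incorporated label was collected on DE filtermats and counted.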

T1 sequence (P26663 2420-3010): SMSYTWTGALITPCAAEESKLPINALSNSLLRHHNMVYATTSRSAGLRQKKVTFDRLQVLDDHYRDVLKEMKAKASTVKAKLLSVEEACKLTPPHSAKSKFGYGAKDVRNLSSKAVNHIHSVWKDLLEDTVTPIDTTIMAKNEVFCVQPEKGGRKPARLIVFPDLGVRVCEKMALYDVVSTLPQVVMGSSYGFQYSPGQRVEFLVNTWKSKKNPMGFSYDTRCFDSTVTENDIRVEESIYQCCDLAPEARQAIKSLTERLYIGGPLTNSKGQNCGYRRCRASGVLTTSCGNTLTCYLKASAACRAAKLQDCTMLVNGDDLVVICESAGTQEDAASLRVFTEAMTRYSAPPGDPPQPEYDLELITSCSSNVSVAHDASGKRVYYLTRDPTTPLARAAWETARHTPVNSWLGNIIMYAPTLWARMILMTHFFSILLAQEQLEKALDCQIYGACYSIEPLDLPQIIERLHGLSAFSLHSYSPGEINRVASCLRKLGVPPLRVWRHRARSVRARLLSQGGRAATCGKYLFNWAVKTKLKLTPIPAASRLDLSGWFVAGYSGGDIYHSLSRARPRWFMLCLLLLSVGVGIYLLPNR

Compound | IC50 [nM]
COc1ccc(CCC2(C3CCCC3)CC(O)=C(Sc3nncn3C(C)C)C(=O)O2)cc1Cl (stereo not drawn) [C(36), 6-[2-(3-chloro-4-methoxyphenyl)ethyl]-6-cyclopentyl-4-hydroxy-3-[(4-isopropyl-4H-1,2,4-triazol-3-yl)thio]-5,6-dihydro-2H-pyran-2-one] | 79
COc1ccc(CCC2(C3CCCC3)CC(O)=C(Sc3nncn3-c3ccccc3)C(=O)O2)cc1Cl (stereo not drawn) [C(37), 6-[2-(3-chloro-4-methoxyphenyl)ethyl]-6-cyclopentyl-4-hydroxy-3-[(4-phenyl-4H-1,2,4-triazol-3-yl)thio]-5,6-dihydro-2H-pyran-2-one] | 130
COc1ccc(CCC2(C3CCCC3)CC(O)=C(Sc3nnnn3C)C(=O)O2)cc1Cl (stereo not drawn) [C(38), 6-[2-(3-chloro-4-methoxyphenyl)ethyl]-6-cyclopentyl-4-hydroxy-3-[(1-methyl-1H-tetrazol-5-yl)thio]-5,6-dihydro-2H-pyran-2-one] | 280
CCn1nnnc1SC1=C(O)CC(CCc2ccc(OC)c(Cl)c2)(C2CCCC2)OC1=O (stereo not drawn) [C(39), 6-[2-(3-chloro-4-methoxyphenyl)ethyl]-6-cyclopentyl-3-[(1-ethyl-1H-tetrazol-5-yl)thio]-4-hydroxy-5,6-dihydro-2H-pyran-2-one] | 220
COc1ccc(CCC2(C3CCCC3)CC(O)=C(Sc3nc4cc(Cl)ccc4n3C(C)C)C(=O)O2)cc1Cl (stereo not drawn) [C(40), 3-[(5-chloro-1-isopropyl-1H-benzimidazol-2-yl)thio]-6-[2-(3-chloro-4-methoxyphenyl)ethyl]-6-cyclopentyl-4-hydroxy-5,6-dihydro-2H-pyran-2-one] | 25
COc1ccc(CCC2(C3CCCC3)CC(O)=C(Sc3nc4ccccc4n3C)C(=O)O2)cc1Cl (stereo not drawn) [C(41), 6-[2-(3-chloro-4-methoxyphenyl)ethyl]-6-cyclopentyl-4-hydroxy-3-[(1-methyl-1H-benzimidazol-2-yl)thio]-5,6-dihydro-2H-pyran-2-one] | 170
COc1ccc(CCC2(C3CCCC3)CC(O)=C(Sc3nnc(-c4ccco4)n3C)C(=O)O2)cc1Cl (stereo not drawn) [C(42), 6-[2-(3-chloro-4-methoxyphenyl)ethyl]-6-cyclopentyl-3-{[5-(2-furyl)-4-methyl-4H-1,2,4-triazol-3-yl]thio}-4-hydroxy-5,6-dihydro-2H-pyran-2-one] | 13
COc1ccc(CCC2(C3CCCC3)CC(O)=C(Sc3nc4ncccc4[nH]3)C(=O)O2)cc1Cl (stereo not drawn) [C(43), 6-[2-(3-chloro-4-methoxyphenyl)ethyl]-6-cyclopentyl-4-hydroxy-3-(1H-imidazo[4,5-b]pyridin-2-ylthio)-5,6-dihydro-2H-pyran-2-one] | 35
COc1ccc(CCC2(C3CCCC3)CC(O)=C(Sc3nc4ccccc4n3C(C)C)C(=O)O2)cc1Cl (stereo not drawn) [C(44), 6-[2-(3-chloro-4-methoxyphenyl)ethyl]-6-cyclopentyl-4-hydroxy-3-[(1-isopropyl-1H-benzimidazol-2-yl)thio]-5,6-dihydro-2H-pyran-2-one] | 180
COc1ccc(CCC2(C3CCCC3)CC(O)=C(Sc3nc4ccccc4s3)C(=O)O2)cc1Cl (stereo not drawn) [C(45), 3-(1,3-benzothiazol-2-ylthio)-6-[2-(3-chloro-4-methoxyphenyl)ethyl]-6-cyclopentyl-4-hydroxy-5,6-dihydro-2H-pyran-2-one] | 3200
COc1ccc(CCC2(C3CCCC3)CC(O)=C(Sc3nc4cnccc4[nH]3)C(=O)O2)cc1Cl (stereo not drawn) [C(46), 6-[2-(3-chloro-4-methoxyphenyl)ethyl]-6-cyclopentyl-4-hydroxy-3-(1H-imidazo[4,5-c]pyridin-2-ylthio)-5,6-dihydro-2H-pyran-2-one] | 37
COc1ccc(CCC2(C3CCCC3)CC(O)=C(Sc3nc4cccnc4s3)C(=O)O2)cc1Cl (stereo not drawn) [C(47), 6-[2-(3-chloro-4-methoxyphenyl)ethyl]-6-cyclopentyl-4-hydroxy-3-([1,3]thiazolo[5,4-b]pyridin-2-ylthio)-5,6-dihydro-2H-pyran-2-one] | 240
COc1ccc(CCC2(C3CCCC3)CC(O)=C(Sc3nc4ccccc4n3-c3ccccc3)C(=O)O2)cc1Cl (stereo not drawn) [C(48), 6-[2-(3-chloro-4-methoxyphenyl)ethyl]-6-cyclopentyl-4-hydroxy-3-[(1-phenyl-1H-benzimidazol-2-yl)thio]-5,6-dihydro-2H-pyran-2-one] | 140
COc1ccc(CCC2(C3CCCC3)CC(O)=C(Sc3nc4cc(Cl)ccc4[nH]3)C(=O)O2)cc1Cl (stereo not drawn) [C(49), 3-[(5-chloro-1H-benzimidazol-2-yl)thio]-6-[2-(3-chloro-4-methoxyphenyl)ethyl]-6-cyclopentyl-4-hydroxy-5,6-dihydro-2H-pyran-2-one] | 80
COc1ccc(CCC2(C3CCCC3)CC(O)=C(Sc3nnc(-c4ccncc4)[nH]3)C(=O)O2)cc1Cl (stereo not drawn) [C(50), 6-[2-(3-chloro-4-methoxyphenyl)ethyl]-6-cyclopentyl-4-hydroxy-3-[(5-pyridin-4-yl-4H-1,2,4-triazol-3-yl)thio]-5,6-dihydro-2H-pyran-2-one] | 10
COc1ccc(CCC2(C3CCCC3)CC(O)=C(Sc3nnc(-c4ccncc4)o3)C(=O)O2)cc1Cl (stereo not drawn) [C(51), 6-[2-(3-chloro-4-methoxyphenyl)ethyl]-6-cyclopentyl-4-hydroxy-3-[(5-pyridin-4-yl-1,3,4-oxadiazol-2-yl)thio]-5,6-dihydro-2H-pyran-2-one] | 256
COc1ccc(CCC2(C3CCCC3)CC(O)=C(Sc3nc4cc(F)ccc4[nH]3)C(=O)O2)cc1Cl (stereo not drawn) [C(52), 6-[2-(3-chloro-4-methoxyphenyl)ethyl]-6-cyclopentyl-3-[(5-fluoro-1H-benzimidazol-2-yl)thio]-4-hydroxy-5,6-dihydro-2H-pyran-2-one] | 140
COc1ccc(CCC2(C3CCCC3)CC(O)=C(Sc3nc4cc(C)ccc4[nH]3)C(=O)O2)cc1Cl (stereo not drawn) [C(53), 6-[2-(3-chloro-4-methoxyphenyl)ethyl]-6-cyclopentyl-4-hydroxy-3-[(5-methyl-1H-benzimidazol-2-yl)thio]-5,6-dihydro-2H-pyran-2-one] | 67
COc1ccc(CCC2(C3CCCC3)CC(O)=C(Sc3nc4c(C)cccc4[nH]3)C(=O)O2)cc1Cl (stereo not drawn) [C(54), 6-[2-(3-chloro-4-methoxyphenyl)ethyl]-6-cyclopentyl-4-hydroxy-3-[(4-methyl-1H-benzimidazol-2-yl)thio]-5,6-dihydro-2H-pyran-2-one] | 220
COc1ccc(CCC2(C3CCCC3)CC(O)=C(Sc3nc4cc(C#N)ccc4[nH]3)C(=O)O2)cc1Cl (stereo not drawn) [C(55), 2-({6-[2-(3-chloro-4-methoxyphenyl)ethyl]-6-cyclopentyl-4-hydroxy-2-oxo-5,6-dihydro-2H-pyran-3-yl}thio)-1H-benzimidazole-5-carbonitrile] | 30
COc1ccc(CCC2(C3CCCC3)CC(O)=C(Sc3ncccc3C#N)C(=O)O2)cc1Cl (stereo not drawn) [C(56), 2-({6-[2-(3-chloro-4-methoxyphenyl)ethyl]-6-cyclopentyl-4-hydroxy-2-oxo-5,6-dihydro-2H-pyran-3-yl}thio)nicotinonitrile] | 1300
COc1ccc(CCC2(C3CCCC3)CC(O)=C(Sc3nc4cc(Cl)ccc4n3C)C(=O)O2)cc1Cl (stereo not drawn) [C(57), 6-[2-(3-chloro-4-methoxyphenyl)ethyl]-3-[(5-chloro-1-methyl-1H-benzimidazol-2-yl)thio]-6-cyclopentyl-4-hydroxy-5,6-dihydro-2H-pyran-2-one] | 2
COc1ccc(CCC2(C3CCCC3)CC(O)=C(Sc3nc4c(O)cccc4[nH]3)C(=O)O2)cc1Cl (stereo not drawn) [C(58), 6-[2-(3-chloro-4-methoxyphenyl)ethyl]-6-cyclopentyl-4-hydroxy-3-[(4-hydroxy-1H-benzimidazol-2-yl)thio]-5,6-dihydro-2H-pyran-2-one] | 140
CCOc1ccc2[nH]c(SC3=C(O)CC(CCc4ccc(OC)c(Cl)c4)(C4CCCC4)OC3=O)nc2c1 (stereo not drawn) [C(59), 6-[2-(3-chloro-4-methoxyphenyl)ethyl]-6-cyclopentyl-3-[(5-ethoxy-1H-benzimidazol-2-yl)thio]-4-hydroxy-5,6-dihydro-2H-pyran-2-one] | 200
COc1ccc(CCC2(C3CCCC3)CC(O)=C(Sc3nc4cc(Cl)c(Cl)cc4n3C)C(=O)O2)cc1Cl (stereo not drawn) [C(60), 6-[2-(3-chloro-4-methoxyphenyl)ethyl]-6-cyclopentyl-3-[(5,6-dichloro-1-methyl-1H-benzimidazol-2-yl)thio]-4-hydroxy-5,6-dihydro-2H-pyran-2-one] | 15
COc1ccc(CCC2(C3CCCC3)CC(O)=C(Sc3nc4cc(Cl)c(F)cc4[nH]3)C(=O)O2)cc1Cl (stereo not drawn) [C(61), 3-[(5-chloro-6-fluoro-1H-benzimidazol-2-yl)thio]-6-[2-(3-chloro-4-methoxyphenyl)ethyl]-6-cyclopentyl-4-hydroxy-5,6-dihydro-2H-pyran-2-one] | 140
COc1ccc(CCC2(C3CCCC3)CC(O)=C(Sc3nc4cc(C(F)(F)F)cc(Cl)c4[nH]3)C(=O)O2)cc1Cl (stereo not drawn) [C(62), 6-[2-(3-chloro-4-methoxyphenyl)ethyl]-3-{[7-chloro-5-(trifluoromethyl)-1H-benzimidazol-2-yl]thio}-6-cyclopentyl-4-hydroxy-5,6-dihydro-2H-pyran-2-one] | 500
COc1cc(OC)c(CCC2(C3CCCC3)CC(O)=C(Sc3nc4cc(Cl)ccc4n3C)C(=O)O2)cc1Cl (stereo not drawn) [C(63), 6-[2-(5-chloro-2,4-dimethoxyphenyl)ethyl]-3-[(5-chloro-1-methyl-1H-benzimidazol-2-yl)thio]-6-cyclopentyl-4-hydroxy-5,6-dihydro-2H-pyran-2-one] | 8
COc1ccc(CCC2(C3CCCC3)CC(O)=C(Sc3nc4cncnc4[nH]3)C(=O)O2)cc1Cl (stereo not drawn) [C(65), 6-[2-(3-chloro-4-methoxyphenyl)ethyl]-6-cyclopentyl-4-hydroxy-3-(9H-purin-8-ylthio)-5,6-dihydro-2H-pyran-2-one] | 54
COc1ccc(CCC2(C3CCCC3)CC(O)=C(Sc3ccc4ccccc4n3)C(=O)O2)cc1Cl (stereo not drawn) [C(66), 6-[2-(3-chloro-4-methoxyphenyl)ethyl]-6-cyclopentyl-4-hydroxy-3-(quinolin-2-ylthio)-5,6-dihydro-2H-pyran-2-one] | 900
